Results reported in article PMC8409965, “Three-component Castagnoli-Cushman reaction with ammonium acetate delivers 2-unsubstituted isoquinol-1-ones as potent inhibitors of poly(ADP-ribose) polymerase (PARP)” (Journal of Enzyme Inhibition and Medicinal Chemistry, 2021).
Like-named read-outs stand apart in the source and are kept apart here.

Experiments:
PARP2 [1] = target: T1, PARP2 (Homo sapiens, UniProt Q9UGN5); assay: PARP2 colorimetric activity assay kit (BPS Bioscience); type: biochemical; details: for IC50: dose-response, mean ± SD, n = 3; for SI (selectivity index) IC50(PARP1)/IC50(PARP2): values greater than 1.0 indicate selectivity towards PARP2
T1 construct: purchased BPS Bioscience (San Diego, CA)
T1 sequence (Q9UGN5 whole entry): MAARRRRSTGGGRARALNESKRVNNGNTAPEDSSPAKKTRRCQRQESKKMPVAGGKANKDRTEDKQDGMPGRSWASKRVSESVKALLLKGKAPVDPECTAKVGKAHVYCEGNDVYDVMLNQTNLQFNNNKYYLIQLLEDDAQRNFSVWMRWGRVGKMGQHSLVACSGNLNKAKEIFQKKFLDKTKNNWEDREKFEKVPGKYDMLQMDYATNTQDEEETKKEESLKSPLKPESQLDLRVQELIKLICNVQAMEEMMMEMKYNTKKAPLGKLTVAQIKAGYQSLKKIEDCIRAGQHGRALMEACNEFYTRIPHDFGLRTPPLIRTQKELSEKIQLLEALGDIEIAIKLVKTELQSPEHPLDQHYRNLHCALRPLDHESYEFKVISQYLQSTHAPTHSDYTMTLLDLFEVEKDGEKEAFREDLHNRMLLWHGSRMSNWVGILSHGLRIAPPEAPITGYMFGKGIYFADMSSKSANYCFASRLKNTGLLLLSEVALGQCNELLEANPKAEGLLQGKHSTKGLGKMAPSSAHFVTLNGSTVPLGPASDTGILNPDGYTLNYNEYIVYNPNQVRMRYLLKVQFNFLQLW

PARP1 [2] = target: T2, PARP1 (Homo sapiens, UniProt P09874); assay: PARP1 colorimetric activity assay kit (BPS Bioscience); type: biochemical; details: dose-response, mean ± SD, n = 3
T2 construct: purchased BPS Bioscience (San Diego, CA)
T2 sequence (P09874 whole entry): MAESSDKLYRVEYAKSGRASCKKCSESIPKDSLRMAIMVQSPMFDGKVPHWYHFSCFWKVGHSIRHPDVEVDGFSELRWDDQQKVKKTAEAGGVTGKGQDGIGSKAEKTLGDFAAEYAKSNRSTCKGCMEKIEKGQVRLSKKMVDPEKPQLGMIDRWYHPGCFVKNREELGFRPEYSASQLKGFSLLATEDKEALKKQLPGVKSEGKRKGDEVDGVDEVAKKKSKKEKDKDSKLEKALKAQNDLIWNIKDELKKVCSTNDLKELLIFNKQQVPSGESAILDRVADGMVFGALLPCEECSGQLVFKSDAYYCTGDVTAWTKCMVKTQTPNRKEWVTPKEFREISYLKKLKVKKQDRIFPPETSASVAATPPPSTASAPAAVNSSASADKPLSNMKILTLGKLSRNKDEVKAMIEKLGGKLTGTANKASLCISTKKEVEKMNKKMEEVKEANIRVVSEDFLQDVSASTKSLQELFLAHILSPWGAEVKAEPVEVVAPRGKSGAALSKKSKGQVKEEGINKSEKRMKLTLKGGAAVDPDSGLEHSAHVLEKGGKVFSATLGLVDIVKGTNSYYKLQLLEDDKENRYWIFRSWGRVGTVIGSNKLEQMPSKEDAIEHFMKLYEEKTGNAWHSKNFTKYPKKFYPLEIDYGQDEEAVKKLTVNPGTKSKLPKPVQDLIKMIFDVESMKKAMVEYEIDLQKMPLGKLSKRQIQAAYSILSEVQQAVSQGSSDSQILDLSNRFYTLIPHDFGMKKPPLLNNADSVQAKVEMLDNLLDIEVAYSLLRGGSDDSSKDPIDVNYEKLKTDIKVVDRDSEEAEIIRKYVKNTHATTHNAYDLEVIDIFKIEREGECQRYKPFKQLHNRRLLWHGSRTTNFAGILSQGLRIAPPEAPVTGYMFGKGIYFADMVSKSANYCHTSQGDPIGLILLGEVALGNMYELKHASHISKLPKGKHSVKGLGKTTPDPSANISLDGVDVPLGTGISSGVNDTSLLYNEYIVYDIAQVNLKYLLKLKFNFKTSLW

PARP1 [3] = target: T2, PARP1; assay: as above; type: biochemical; details: 1 µM concentration of the inhibitor, mean ± SD, n = 3
Experimental: The initial screening was performed against PARP1 at 1 µM concentration of each compound, in triplicate (n = 3) measurements.

PARP2 [4] = target: T1, PARP2; set-up: method as in PMID 34482781; details: values greater than 1.0 indicate selectivity towards PARP2; cited from earlier work
[5] = Solubility in pH 7.4 phosphate buffer; type: physicochemical; details: aqueous buffer; pH 7.4 0.01 M phosphate buffer solution
[6] = Stability in the presence of hepatic S9 fraction; type: in vitro ADME
[7] = Stability in the presence of human liver microsomes; type: in vitro ADME
[8] = Stability in human plasma; type: in vitro ADME; details: after incubation (4 h) with human plasma
Plasma protein binding = type: in vitro ADME

IC50 (PARP2 [1]) [nM]	SI (selectivity index) IC50(PARP1)/IC50(PARP2) (PARP2 [1])	IC50 (PARP1 [2]) [nM]	inhibition at 1 µM (PARP1 [3]) [%]	SMILES	also measured
39.9 ± 7.3	1.39	55.4 ± 8.8		O=C1N[C@H](c2ccc(F)cc2)[C@@H](C(=O)N2CCC(N3CCCCC3)CC2)c2ccccc21 [Compound 2b]	
			4 ± 7.4	CC1(C)NC(=O)c2ccccc2[C@@H]1C(=O)N1CCC(N2CCCCC2)CC1 [Compound 2h]	
29.2 ± 3.4	3.28	95.7 ± 17.7		C[C@H]1NC(=O)c2ccccc2[C@@H]1C(=O)N1CCC(N2CCCCC2)CC1 [Compound 2m]	
69.5 ± 12.8	1.26	87.9 ± 10.2		O=C1N[C@H](c2ccccc2)[C@@H](C(=O)N2CCC(N3CCCCC3)CC2)c2ccccc21 [Compound 2a]	
		160 ± 18.6		CC(C)[C@H]1NC(=O)c2ccccc2[C@@H]1C(=O)N1CCC(N2CCCCC2)CC1 [Compound 2d]	
105 ± 20.8	0.83	87 ± 8.3		CC(C)C[C@H]1NC(=O)c2ccccc2[C@@H]1C(=O)N1CCC(N2CCCCC2)CC1 [Compound 2g]	
11 ± 2.2	4.05	44.6 ± 5.6		CC[C@H]1NC(=O)c2ccccc2[C@@H]1C(=O)N1CCC(N2CCCCC2)CC1 [Compound 2c]	

The next lines start with the molecule.

SMILES	IC50 (PARP2 [1]) [nM]	SI (selectivity index) IC50(PARP1)/IC50(PARP2) (PARP2 [1])	IC50 (PARP1 [2]) [nM]	inhibition at 1 µM (PARP1 [3]) [%]	also measured
O=C1NC2(CCOCC2)[C@@H](C(=O)N2CCC(N3CCCCC3)CC2)c2ccccc21 [Compound 2j]				5.1 ± 6.6	
O=C1N[C@H](C2CCCC2)[C@@H](C(=O)N2CCC(N3CCCCC3)CC2)c2ccccc21 [Compound 2l]	> 500		> 500		
O=C1NCC(C(=O)N2CCC(N3CCCCC3)CC2)c2ccccc21 (stereo not shown) [Compound 1a]					SI (selectivity index) IC50(PARP1)/IC50(PARP2) (PARP2 [4]): 2.23
O=C1NC(C2CC2)C(C(=O)N2CCC(N3CCCCC3)CC2)c2ccc(F)cc21 (stereo not shown) [Compound 6, 4-([1,4′-bipiperidine]-1′-carbonyl)-3-cyclopropyl-7-fluoro-3,4-dihydroisoquinolin-1(2H)-one]	4.3 ± 0.5	5.1	22 ± 3.2		solubility [5]: > 100 µM; Stability S9 [6]: 0.1 µL/min/mg; Stability HLM [7]: 3.8 µL/min/mg; Stability Plasma (% compound remaining) [8]: 100%; PPB (plasma protein binding) (Plasma protein binding): 71.0 % bound
O=C1NC2(CCCC2)[C@@H](C(=O)N2CCC(N3CCCCC3)CC2)c2ccccc21 [Compound 2k]				10.6 ± 9.7	
CC(C)(C)[C@H]1NC(=O)c2ccccc2[C@@H]1C(=O)N1CCC(N2CCCCC2)CC1 [Compound 2f]				24.1 ± 6	
O=C1N[C@H](C2CC2)[C@@H](C(=O)N2CCC(N3CCCCC3)CC2)c2ccccc21 [Compound 2e]	18.3 ± 4.5	1.44	26.4 ± 4.1		
O=C1NC2(CCCCC2)[C@@H](C(=O)N2CCC(N3CCCCC3)CC2)c2ccccc21 [Compound 2i]				12.1 ± 7.2	
O=C(c1cc(Cc2n[nH]c(=O)c3ccccc23)ccc1F)N1CCN(C(=O)C2CC2)CC1 [Olaparib, reference compound]					solubility [5]: > 100 µM; Stability S9 [6]: 1.1 µL/min/mg; Stability HLM [7]: 15 µL/min/mg; Stability Plasma (% compound remaining) [8]: 100%; PPB (plasma protein binding) (Plasma protein binding): 90.2 % bound
